Here are results for ten compounds from patent publication US20230372498A1, “PLK1 SELECTIVE DEGRADATION INDUCING COMPOUND” (UPPTHERA, priority 2020, published 2023).

A word on the DC50: it is the concentration at which degradation of the target reaches its halfway point. By Dmax is commonly meant the greatest extent of degradation seen.

The experiment deals with T1, PLK1 (Homo sapiens, UniProt P53350).
T1 construct: endogenous in cells; host or cells: HeLa
Description: PLK1 protein degradation in HeLa cells, Western blotting (PLK1/GAPDH ratio). The class given is cell-based. The note with it: 6 hours compound incubation; for DC50: measured only if the grade of Dmax is A or B; for Dmax: thymidine block and release, 10 points three-fold from 3 μM, PLK1 to GAPDH ratio, read-out: Dmax. The text has this: The HeLa cell line was purchased from Korea Cell Line Bank (KCLB), Seoul, Korea. The passage in cell culture was maintained at P115 to P125.
For cell culture, DMEM (Gibco, Cat. No. 1195-65; Lot. No. 2085318), FBS (Gibco, Cat. No. 16000-044; Lot. No. 2097593), Penicillin/Streptomycin (PS) (Gibco, Cat. No. 15140-122; Lot. No. 2058855), 100 mm^2 cell culture dish (SPL, Cat. No. 20100), 150 mm^2 cell culture dish (SPL, Cat. No. 20150), 12-well culture plate (SPL, Cat. No. 30012), PBS pH 7.4 (Gibco, Cat. No. 10010-023; Lot. No. 2085080), TrypLE™ Express (Gibco, Cat. No. 12605-010; Lot No. 2070638), Counting Chamber (Hematocytometer) (Hirschmann, Cat. No. 8100204), and 0.4% Trypan Blue Solution (DYNEBIO, Cat. No. CBT3710; Lot. No. 20190723) were used.
2×10^5 cells were seeded for each well of a 12-well plate (SPL), and the cells were cultured in the culture medium in a total volume of 2 ml.
The compounds of Examples were completely dissolved in DMSO and used in the experiment, and thymidine was completely dissolved in DW and used in the experiment. For thymidine block, the products were treated with 2 mM of thymidine (Sigma-Aldrich Cat. No. T9250-5G) and then incubated for 24 hours.
For release and chemical treatment, the medium was suctioned and washed 3 times with 1×PBS. Complete media was added, followed by incubation for 4 hours in a CO2 incubator. Each compound was diluted three folds from the highest concentration of 3 μM to the lowest concentration in 10 points and then incubated for 6 hours again.
For SDS-PAGE and Western blotting, 1×RIPA lysis buffer (Rockland, Cat. No. MB-030-0050; Lot no. 39751), 100× Protease Inhibitor Cocktail (Quartett, Cat. No. PPI1015; Lot no. PCO50038424), Pierce™ BCA protein assay kit (ThermoScientific, Cat. No. 23225; Lot no. UC276876), albumin standard (ThermoScientific, Cat. No. 23209; Lot no. UB269561), 4-15% Mini-PROTEAN TGX stain-free gel (Bio-rad, Cat. No. 4568085; Lot no. L007041B), 10× Tris/Glycine/SDS buffer (Bio-rad, Cat. No. 1610732; Lot no. 10000044375B); 10×TBS (Bio-rad, Cat. No. 1706435; Lot no. 1000045140B), 10% Tween 20 (Cat. No. 1610781; Lot no. L004152B), Color protein standard broad range (NEB, Cat. No. P7719S; Lot no. 10040349), 4× Laemmli sample buffer (Bio-rad, Cat. No. 1610747; Lot no. L004133B), β-mercaptoethanol (Sigma-Aldrich, Cat. No. M3148; Lot no. 60-24-2), SuperBlock™ T20 (TBS) blocking buffer (ThermoScientific, Cat. No. 37536; Lot no. UC282578), 1M sodium azide solution (Sigma-Aldrich, Cat. No. 08591-1 mL-F; Lot no. BCBV4989), α-Rabbit pAb to Ms IgG (abcam, Cat. No. ab97046; Lot no. GR3252115-1), α-Goat pAb to Rb IgG (CST, Cat. No. 7074S; Lot no. 28), α-GAPDH (abcam, Cat. No. ab8245; Lot no. GR3275542-2), α-Plk1 (CST, Cat. No. 208G4), α-BRD4 (CST, Cat. No. 13440S), ECL™ Prime western blotting reagents (GE Healthcare, Cat. No. RPN2232; Lot no. 17001655), Ponceau S solution (Sigma-Aldrich, Cat. No. P7170; Lot no. SLBV4112), Difco™ Skim milk (BD, Cat. No. 232100; Lot no. 8346795), and iBlot® 2 NC Regular stacks (Invitrogen, Cat. No. IB323001; Lot no. 2NR110619-02) were used.
For cell harvesting, the cells were first separated from the plate using trypsin and then washed with the medium and PBS. Specifically, the medium was suctioned off and washed with 1 mL of PBS, and PBS was suctioned off. The cells were treated with 0.5 mL TrypLE™ Express at 37° C. for 7 minutes to separate the cells, and then 0.5 mL of complete medium was added to collect 1 mL of cell culture solution. Then, 1 mL of the cell collection solution was centrifuged at 8,000 rpm for 120 seconds, and the supernatant was removed. After washing with 0.2 mL of PBS, the PBS was removed.
For cell lysis, a lysis buffer was added and cell debris was removed to obtain a cell lysate. Specifically, the cells were treated with 70 μL of 1×RIPA buffer containing a protease inhibitor and incubated for 30 minutes on ice. Then, the cells were centrifuged at 4° C. and 15,000 rpm for 10 minutes to obtain a cell lysate. […]
In general terms: In western blotting, separated proteins are transferred to a membrane and probed.

T1 sequence (P53350 whole entry): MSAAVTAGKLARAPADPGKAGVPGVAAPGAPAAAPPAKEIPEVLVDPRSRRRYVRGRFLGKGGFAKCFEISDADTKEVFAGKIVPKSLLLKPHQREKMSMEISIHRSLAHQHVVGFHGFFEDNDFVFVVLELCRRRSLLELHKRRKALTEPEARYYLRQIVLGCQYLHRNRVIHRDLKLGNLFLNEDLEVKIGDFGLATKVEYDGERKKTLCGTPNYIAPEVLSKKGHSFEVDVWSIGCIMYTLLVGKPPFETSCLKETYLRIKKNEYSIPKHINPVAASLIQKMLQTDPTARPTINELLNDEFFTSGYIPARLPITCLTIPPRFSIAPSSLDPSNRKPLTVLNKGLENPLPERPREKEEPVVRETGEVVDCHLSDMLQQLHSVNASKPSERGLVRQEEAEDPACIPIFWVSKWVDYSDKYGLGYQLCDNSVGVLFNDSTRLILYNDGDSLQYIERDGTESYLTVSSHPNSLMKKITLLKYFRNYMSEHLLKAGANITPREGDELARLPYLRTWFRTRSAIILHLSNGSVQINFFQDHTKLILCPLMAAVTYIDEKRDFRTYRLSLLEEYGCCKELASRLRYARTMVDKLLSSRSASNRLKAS

For the compound `COc1cc(C(=O)NC2CCN(Cc3cn(CCOCCOCCOCCNc4cccc5c4C(=O)N(C4CCC(=O)NC4=O)C5=O)nn3)CC2)c(F)cc1Nc1ncc2c(n1)N(C1CCCC1)CC(F)(F)C(=O)N2C` (stereo not shown) [Compound 45, 4-((9-cyclopentyl-7,7-difluoro-5-methyl-6-oxo-6,7,8,9-tetrahydro-5H-pyrimido[4,5-b][1,4]diazepin-2-yl)amino)-N-(1-((1-(2-(2-(2-(2-((2-(2,6-dioxopiperidin-3-yl)-1,3-dioxoisoindolin-4-yl)amino)ethoxy)ethoxy)ethoxy)ethyl)-1H-1,2,3-triazol-4-yl)methyl)piperidin-4-yl)-2-fluoro-5-methoxybenzamide], the DC50 is ≤ 50 nM and the maximal degradation (Dmax) was ≥ 80%.
The matching figures for `CN1C(=O)C(F)(F)CN(C2CCCC2)c2nc(Nc3ccc(C(=O)N[C@H]4CCN(C(=O)CCC(=O)N5CCN(c6cccc7c6C(=O)N(C6CCC(=O)NC6=O)C7=O)CC5)C4)cc3)ncc21` (stereo partly drawn) [Compound 142, 4-((9-cyclopentyl-7,7-difluoro-5-methyl-6-oxo-6,7,8,9-tetrahydro-5H-pyrimido[4,5-b][1,4]diazepin-2-yl)amino)-N-((3S)-1-(4-(4-(2-(2,6-dioxopiperidin-3-yl)-1,3-dioxoisoindolin-4-yl)piperazin-1-yl)-4-oxobutanoyl)pyrrolidin-3-yl)benzamide]: ≤ 500 nM and 60 to 80%.
As to `COc1cc(C(=O)NC2CCN(CCCCCCCCNc3cccc4c3CN(C3CCC(=O)NC3=O)C4=O)CC2)c(F)cc1Nc1ncc2c(n1)N(C1CCCC1)CC(F)(F)C(=O)N2C` (stereo not shown) [Compound 77, 4-((9-cyclopentyl-7,7-difluoro-5-methyl-6-oxo-6,7,8,9-tetrahydro-5H-pyrimido[4,5-b][1,4]diazepin-2-yl)amino)-N-(1-(8-((2-(2,6-dioxopiperidin-3-yl)-1-oxoisoindolin-4-yl)amino)octyl)piperidin-4-yl)-2-fluoro-5-methoxybenzamide], the DC50 was ≤ 500 nM and the maximal degradation (Dmax) lay in the range of 60 to 80%.
The matching figures for `COc1cc(C(=O)NC2CCN(CCCCCCCc3cccc(CNC(=O)COc4cccc5c4C(=O)N(C4CCC(=O)NC4=O)C5=O)c3)CC2)c(F)cc1Nc1ncc2c(n1)N(C1CCCC1)CC(F)(F)C(=O)N2C` (stereo not shown) [Compound 63, 4-((9-cyclopentyl-7,7-difluoro-5-methyl-6-oxo-6,7,8,9-tetrahydro-5H-pyrimido[4,5-b][1,4]diazepin-2-yl)amino)-N-(1-(7-(3-((2-((2-(2,6-dioxopiperidin-3-yl)-1,3-dioxoisoindolin-4-yl)oxy)acetamido)methyl)phenyl)heptyl)piperidin-4-yl)-2-fluoro-5-methoxybenzamide]: ≤ 50 nM and ≥ 80%.
For `COc1cc(C(=O)NC2CC3(C2)CN(C(=O)CCCCNc2cccc4c2C(=O)N(C2CCC(=O)NC2=O)C4=O)C3)c(F)cc1Nc1ncc2c(n1)N(C1CCCC1)CC(F)(F)C(=O)N2C` (stereo not shown) [Compound 161, 4-((9-cyclopentyl-7,7-difluoro-5-methyl-6-oxo-6,7,8,9-tetrahydro-5H-pyrimido[4,5-b][1,4]diazepin-2-yl)amino)-N-(2-(5-((2-(2,6-dioxopiperidin-3-yl)-1,3-dioxoisoindolin-4-yl)amino)pentanoyl)-2-azaspiro[3.3]heptan-6-yl)-2-fluoro-5-methoxybenzamide] the same measures were ≤ 50 nM and ≥ 80%.
For `COc1cc(C(=O)NC2CCN(CCCCCCCCCCCCCNc3cccc4c3C(=O)N(C3CCC(=O)NC3=O)C4=O)CC2)c(F)cc1Nc1ncc2c(n1)N(C1CCCC1)CC(F)(F)C(=O)N2C` (stereo not shown) [Compound 16, 4-((9-cyclopentyl-7,7-difluoro-5-methyl-6-oxo-6,7,8,9-tetrahydro-5H-pyrimido[4,5-b][1,4]diazepin-2-yl)amino)-N-(1-(13-((2-(2,6-dioxopiperidin-3-yl)-1,3-dioxoisoindolin-4-yl)amino)tridecyl)piperidin-4-yl)-2-fluoro-5-methoxybenzamide], the maximal degradation (Dmax) is < 60%.
With `COc1cc(C(=O)NC2CCN(CCOCCOCCNc3cccc4c3C(=O)N(C3CCC(=O)NC3=O)C4=O)CC2)c(F)cc1Nc1ncc2c(n1)N(C(C)C)CC(F)(F)C(=O)N2C` (stereo not shown) [Example 100, 4-((7,7-difluoro-9-isopropyl-5-methyl-6-oxo-6,7,8,9-tetrahydro-5H-pyrimido[4,5-b][1,4]diazepin-2-yl)amino)-N-(1-(2-(2-(2-((2-(2,6-dioxopiperidin-3-yl)-1,3-dioxoisoindolin-4-yl)amino)ethoxy)ethoxy)ethyl)piperidin-4-yl)-2-fluoro-5-methoxybenzamide], the half-maximal degradation concentration (DC50) is ≤ 500 nM and the Dmax fell in the range of 60 to 80%.
For `COc1cc(C(=O)NC2CCN(CCOCCOCCOCCNC(=O)CNc3cccc4c3C(=O)N(C3CCC(=O)NC3=O)C4=O)CC2)c(F)cc1Nc1ncc2c(n1)N(C1CCCC1)CC(F)(F)C(=O)N2C` (stereo not shown) [Compound 30, 4-((9-cyclopentyl-7,7-difluoro-5-methyl-6-oxo-6,7,8,9-tetrahydro-5H-pyrimido[4,5-b][1,4]diazepin-2-yl)amino)-N-(1-(1-((2-(2,6-dioxopiperidin-3-yl)-1,3-dioxoisoindolin-4-yl)amino)-2-oxo-6,9,12-trioxa-3-azatetradecan-14-yl)piperidin-4-yl)-2-fluoro-5-methoxybenzamide] the same measures were ≤ 50 nM and ≥ 80%.
In the case of `CN1C(=O)C(F)(F)CN(C2CCCC2)c2nc(Nc3ccc(C(=O)NC4CCN(C(=O)CCN5CCN(c6cccc7c6C(=O)N(C6CCC(=O)NC6=O)C7=O)CC5)CC4)cc3)ncc21` (stereo not shown) [Compound 129, 4-((9-cyclopentyl-7,7-difluoro-5-methyl-6-oxo-6,7,8,9-tetrahydro-5H-pyrimido[4,5-b][1,4]diazepin-2-yl)amino)-N-(1-(3-(4-(2-(2,6-dioxopiperidin-3-yl)-1,3-dioxoisoindolin-4-yl)piperazin-1-yl)propanoyl)piperidin-4-yl)benzamide], the DC50 was ≤ 50 nM and the Dmax was ≥ 80%.
Take `COc1cc(C(=O)NC2CCN(C(=O)COCCOCCNc3cccc4c3C(=O)N(C3CCC(=O)NC3=O)C4=O)CC2)c(F)cc1Nc1ncc2c(n1)N(C1CCCC1)CC(F)(F)C(=O)N2C` (stereo not shown) [Compound 33, 4-((9-cyclopentyl-7,7-difluoro-5-methyl-6-oxo-6,7,8,9-tetrahydro-5H-pyrimido[4,5-b][1,4]diazepin-2-yl)amino)-N-(1-(2-(2-(2-((2-(2,6-dioxopiperidin-3-yl)-1,3-dioxoisoindolin-4-yl)amino)ethoxy)ethoxy)acetyl)piperidin-4-yl)-2-fluoro-5-methoxybenzamide]: the DC50 was ≤ 50 nM and the maximal degradation (Dmax) was ≥ 80%.
